Data from article PMC6933084 (Journal of medicinal chemistry, 2019).

Columns and labels:
WDR5 [1] = target: T1, WDR5 (Homo sapiens, UniProt P61964); settings: for binding affinity for WDR5 (in words): FPA
WDR5 [2] = target: T1, WDR5; test: Thermal shift by differential scanning fluorimetry; format: binding; settings: DSF; 10 μM, or ten-point dilution for 7k
WDR5-RBBP5 = WDR5-RBBP5 (Homo sapiens, UniProt P61964); format: biochemical; settings: HEK293 lysates; lowest concentration tested (6.25 μM)
WDR5-c-MYC = WDR5-c-MYC (Homo sapiens, UniProt P61964); format: biochemical; settings: HEK293 lysates; lowest concentration tested (6.25 μM)
WDR5 [3] = target: T1, WDR5; test: biochemical

COc1ccccc1S(=O)(=O)Nc1cc(Cl)ccc1O [Compound 5a, N-(5-Chloro-2-hydroxyphenyl)-2-methoxybenzenesulfonamide]
binding affinity for WDR5 (in words) (WDR5 [1]): all binding affinity for WDR5 is lost

O=S(=O)(Nc1cc(S(F)(F)(F)(F)F)ccc1O)c1cc(Br)ccc1O [Compound 5k, 5-Bromo-2-hydroxy-N-(2-hydroxy-5-(pentafluorosulfanyl)phenyl)benzenesulfonamide]
improved binding affinity in comparison to 5l (WDR5 [1]; FPA Kd ratio vs trifluoromethyl cyclopropane 5l): ~ 5 fold

O=C(O)c1cc(S(F)(F)(F)(F)F)cc(NS(=O)(=O)c2cc(Br)cc(Cl)c2O)c1O [Compound 6o, 3-((5-Bromo-3-chloro-2-hydroxyphenyl)sulfonamido)-2-hydroxy-5-(pentafluorosulfanyl)benzoic acid]
WDR5 stabilization by thermal shift (in words) (WDR5 [2]): largest ΔTm

N#CC1(c2cc(NS(=O)(=O)c3cc(Br)cc(Cl)c3O)c(O)c(C(=O)O)c2)CCC1 [Compound 6r, 3-((5-Bromo-3-chloro-2-hydroxyphenyl)sulfonamido)-5-(1-cyanocyclobutyl)-2-hydroxybenzoic acid]
disruption of the association WDR5-RBBP5 at the lowest concentration tested (WDR5-RBBP5): marked disruption
WDR5 stabilization by thermal shift (in words) (WDR5 [2]): largest ΔTm
disruption of the association WDR5-c-MYC at the lowest concentration tested (WDR5-c-MYC): marked disruption

N#CC1(c2cc(NS(=O)(=O)c3cc(Br)cc(Cl)c3O)c(O)c(C(=O)O)c2)CCCCC1 [Compound 6t, 3-((5-Bromo-3-chloro-2-hydroxyphenyl)sulfonamido)-5-(1-cyanocyclohexyl)-2-hydroxybenzoic acid]
WDR5 stabilization by thermal shift (in words) (WDR5 [2]): largest ΔTm

CNC(=O)c1cc(C2(C#N)CCC2)cc(NS(=O)(=O)c2cc(Br)cc(Cl)c2O)c1O [Compound 7k, 3-((5-Bromo-3-chloro-2-hydroxyphenyl)sulfonamido)-5-(1-cyanocyclobutyl)-2-hydroxy-N-methylbenzamide]
WDR5 stabilization by thermal shift (in words) (WDR5 [2]): concentration-dependent response

N#CC1(c2cc(NS(=O)(=O)c3cc(Br)ccc3O)c(O)c(C(=O)Nc3nc[nH]n3)c2)CCC1 [Compound 7n, 3-((5-Bromo-2-hydroxyphenyl)sulfonamido)-5-(1-cyanocyclobutyl)-2-hydroxy-N-(1H-1,2,4-triazol-3-yl)benzamide]
Kd (WDR5 [3]): 46 ± 14 nM

COCCNC(=O)c1cc(C2(C#N)CCC2)cc(NS(=O)(=O)c2cc(Br)ccc2O)c1O [Compound 7o, 3-((5-Bromo-2-hydroxyphenyl)sulfonamido)-5-(1-cyanocyclobutyl)-2-hydroxy-N-(2-methoxyethyl)benzamide]
Kd (WDR5 [3]): 757 ± 17 nM

COc1ccc(Br)cc1S(=O)(=O)Nc1cc(Cl)cc(S(C)(=O)=O)c1O [Compound 8, 5-Bromo-N-(5-chloro-2-hydroxy-3-(methylsulfonyl)phenyl)-2-methoxybenzenesulfonamide]
binding affinity for WDR5 (in words) (WDR5 [1]): sub-micromolar affinity

CNC(=O)c1cc(C2(C#N)CCC2)cc(NS(=O)(=O)c2cc(Br)ccc2OC)c1O [Compound 9, 3-((5-Bromo-2-methoxyphenyl)sulfonamido)-5-(1-cyanocyclobutyl)-2-hydroxy-N-methylbenzamide]
binding affinity for WDR5 (in words) (WDR5 [1]): sub-micromolar affinity
